Results from patent publication US20240122180A1, “FUNGICIDAL HALOMETHYL KETONES AND HYDRATES AND THEIR MIXTURES” (FMC Corporation, priority 2020, published 2024).

Legend:
[1] = test system: Puccinia recondita f. sp. tritici (the causal agent of wheat leaf rust); test: Test B: preventive spray on wheat seedlings, disease rating (100 = 100% control; * 50 ppm, ** 10 ppm, *** 250 ppm); type: in vivo; conditions: wheat seedlings, 100 = 100% disease control
Summary of the method: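 Preventive test: Puccinia recondita f. sp. tritici spores were inoculated one day after run-off spraying of wheat seedlings with test suspension (acetone/water 50/50, 250 ppm PEG400). After 24 h in saturated air and 6 days in a growth chamber, both at 20° C, control was scored 0–100 versus untreated plants.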

[2] = test system: Phakopsora pachyrhizi (the causal agent of Asian soybean rust); test: Test A: preventive spray on soybean seedlings, visual disease rating (100 = 100% control; * 50 ppm, ** 10 ppm, *** 250 ppm); type: in vivo; conditions: soybean seedlings, 100 = 100% disease control
From the text: General protocol for preparing test suspensions for Tests A-E: the test compounds were first dissolved in acetone in an amount equal to 3% of the final volume and then suspended at the desired concentration (in ppm) in acetone and purified water (50/50 mix by volume) containing 250 ppm of the surfactant […] (polyhydric alcohol esters). The resulting test suspensions were then used in Tests A-E.
The test solution was sprayed to the point of run-off on soybean seedlings. The following day the seedlings were inoculated with a spore suspension of Phakopsora pachyrhizi (the causal agent of Asian soybean rust) and incubated in a saturated atmosphere at 22° C. for 24 h, and then moved to a growth chamber at 22° C. for 8 days, after which time visual disease ratings were made.
Results for Tests A-E are given in Table A. In the Table, a rating of 100 indicates 100% disease control and a rating of 0 indicates no disease control (relative to the controls). An asterisk “*” or a double asterisk “**” or a triple asterisk “***” next to the rating value indicates a 50 ppm, 10 ppm and 250 ppm test suspension was used, respectively. A dash (-) indicates the compound was not tested.

## CCOC(=O)c1cnn(Cc2ccc(COCC3(C(F)(F)F)OCCO3)cc2)c1 [compound 141]
[1]; 10 ppm test suspension
  Test B disease control rating: 0%
[2]; 10 ppm test suspension
  Test A disease control rating: 0%

## CCO/C(=C\Oc1ccc(-c2noc(C(F)(F)F)n2)cc1)C(F)(F)F [compound 143]
[1]; 10 ppm test suspension
  Test B disease control rating: 0%
[2]; 10 ppm test suspension
  Test A disease control rating: 0%

## CCO/C(=C\Oc1ccc(C#N)cc1)C(F)(F)F [compound 144]
[1]; 10 ppm test suspension
  Test B disease control rating: 0%
[2]; 10 ppm test suspension
  Test A disease control rating: 78%

## CCOC(=O)c1cnn(Cc2ccc(O/C=C(\OCCO)C(F)(F)F)cc2)c1 [compound 145]
[1]; 10 ppm test suspension
  Test B disease control rating: 0%
[2]; 10 ppm test suspension
  Test A disease control rating: 82%

## CCO/C(=C\Oc1ccc(C=O)cc1)C(F)(F)F [compound 148]
[1]; 10 ppm test suspension
  Test B disease control rating: 0%
[2]; 10 ppm test suspension
  Test A disease control rating: 0%

## CCO/C(=C\Oc1ccc(CNS(=O)(=O)CC)cc1)C(F)(F)F [compound 149]
[1]; 10 ppm test suspension
  Test B disease control rating: 0%
[2]; 10 ppm test suspension
  Test A disease control rating: 0%

## CCO/C(=C\Oc1ccc(CNC(=O)CC)cc1)C(F)(F)F [compound 150]
[1]; 10 ppm test suspension
  Test B disease control rating: 0%
[2]; 10 ppm test suspension
  Test A disease control rating: 33%

## CCO/C(=C\Oc1ccc(Cn2cccn2)cc1)C(F)(F)F [compound 151]
[1]; 10 ppm test suspension
  Test B disease control rating: 0%
[2]; 10 ppm test suspension
  Test A disease control rating: 0%

## CCO/C(=C\Oc1ccc(Cn2nc(C)cc2C)cc1)C(F)(F)F [compound 152]
[1]; 10 ppm test suspension
  Test B disease control rating: 0%
[2]; 10 ppm test suspension
  Test A disease control rating: 0%

## CCOC(=O)c1cn(Cc2ccc(O/C=C(\OCC)C(F)(F)F)cc2)cn1 [compound 153]
[1]; 10 ppm test suspension
  Test B disease control rating: 0%
[2]; 10 ppm test suspension
  Test A disease control rating: 100%

## CCO/C(=C\Oc1ccc(CC#N)cc1)C(F)(F)F [compound 154]
[1]; 10 ppm test suspension
  Test B disease control rating: 0%
[2]; 10 ppm test suspension
  Test A disease control rating: 0%

## CCO/C(=C\Oc1ccc(CSC#N)cc1)C(F)(F)F [compound 155]
[1]; 10 ppm test suspension
  Test B disease control rating: 0%
[2]; 10 ppm test suspension
  Test A disease control rating: 0%

## CCO/C(=C\Oc1ccc(Cn2ccnc2)cc1)C(F)(F)F [compound 156]
[1]; 10 ppm test suspension
  Test B disease control rating: 0%
[2]; 10 ppm test suspension
  Test A disease control rating: 0%

## CCO/C(=C\Oc1ccc(Cn2cncn2)cc1)C(F)(F)F [compound 157]
[1]; 10 ppm test suspension
  Test B disease control rating: 9%
[2]; 10 ppm test suspension
  Test A disease control rating: 0%

## CCOC(=COc1ccc(Cn2ccc(C)n2)cc1)C(F)(F)F [compound 158]
[1]; 10 ppm test suspension
  Test B disease control rating: 0%
[2]; 10 ppm test suspension
  Test A disease control rating: 0%

## CCOC(=O)c1ccc2c(cnn2Cc2ccc(OCC3(C(F)(F)F)OCCO3)cc2)c1 [compound 160]
[1]; 10 ppm test suspension
  Test B disease control rating: 0%
[2]; 10 ppm test suspension
  Test A disease control rating: 13%

## O=C(OCCCCl)c1cnn(Cc2ccc(OCC3(C(F)(F)F)OCCO3)cc2)c1 [compound 161]
[1]; 10 ppm test suspension
  Test B disease control rating: 0%
[2]; 10 ppm test suspension
  Test A disease control rating: 100%

## N#CCNC(=O)c1cnn(Cc2ccc(OCC3(C(F)(F)F)OCCO3)cc2)c1 [compound 164]
[1]; 10 ppm test suspension
  Test B disease control rating: 0%
[2]; 10 ppm test suspension
  Test A disease control rating: 31%

## CCOC(=O)c1cnn(Cc2ccc(OCC3(C(F)(F)F)OCCO3)nc2)c1 [compound 166]
[1]; 10 ppm test suspension
  Test B disease control rating: 95%
[2]; 10 ppm test suspension
  Test A disease control rating: 100%

## CCOC(=O)c1cnn(Cc2ccc(CO/C=C(\OCC)C(F)(F)F)cc2)c1 [compound 167]
[1]; 10 ppm test suspension
  Test B disease control rating: 0%
[2]; 10 ppm test suspension
  Test A disease control rating: 38%

## CC(=O)COC(=O)c1cnn(Cc2ccc(OCC3(C(F)(F)F)OCCO3)cc2)c1 [compound 169]
[1]; 10 ppm test suspension
  Test B disease control rating: 0%
[2]; 10 ppm test suspension
  Test A disease control rating: 100%

## N#CCOC(=O)c1cnn(Cc2ccc(OCC3(C(F)(F)F)OCCO3)cc2)c1 [compound 172]
[1]; 10 ppm test suspension
  Test B disease control rating: 0%
[2]; 10 ppm test suspension
  Test A disease control rating: 100%

## FC(F)(F)c1nc(-c2ccc(OCC3(C(F)(F)F)OCCO3)cc2)no1 [compound 173]
[1]; 10 ppm test suspension
  Test B disease control rating: 0%
[2]; 10 ppm test suspension
  Test A disease control rating: 0%

## NCc1ccc(OCC2(C(F)(F)F)OCCO2)cc1 [compound 174]
[1]; 10 ppm test suspension
  Test B disease control rating: 0%
[2]; 10 ppm test suspension
  Test A disease control rating: 0%

## CC(C)C(=O)NCc1ccc(OCC2(C(F)(F)F)OCCO2)cc1 [compound 175]
[1]; 10 ppm test suspension
  Test B disease control rating: 0%
[2]; 10 ppm test suspension
  Test A disease control rating: 0%

## O=C(NCc1ccc(OCC2(C(F)(F)F)OCCO2)cc1)C1CC1 [compound 176]
[1]; 10 ppm test suspension
  Test B disease control rating: 0%
[2]; 10 ppm test suspension
  Test A disease control rating: 0%

## O=Cc1ccc(OCC(O)(O)C(F)(F)F)cc1 [compound 177]
[1]; 50 ppm test suspension
  Test B disease control rating: 89%
[2]; 50 ppm test suspension
  Test A disease control rating: 100%

## OCc1ccc(OCC2(C(F)(F)F)OCCO2)cc1 [compound 178]
[1]; 10 ppm test suspension
  Test B disease control rating: 0%
[2]; 10 ppm test suspension
  Test A disease control rating: 0%

## O=C(NCc1ccc(OCC2(C(F)(F)F)OCCO2)cc1)c1cccc(C(F)(F)F)c1 [compound 179]
[1]; 10 ppm test suspension
  Test B disease control rating: 0%
[2]; 10 ppm test suspension
  Test A disease control rating: 0%

## CCO/C(=C\Oc1ccc(Cn2cc(Cl)cn2)cc1)C(F)(F)F [compound 180]
[1]; 10 ppm test suspension
  Test B disease control rating: 0%
[2]; 10 ppm test suspension
  Test A disease control rating: 0%

## CCOC(=COc1ccc(Cn2ccc(C(F)(F)F)n2)cc1)C(F)(F)F [compound 181]
[1]; 10 ppm test suspension
  Test B disease control rating: 0%
[2]; 10 ppm test suspension
  Test A disease control rating: 0%

## CCO/C(=C\Oc1ccc(Cn2cc(C(F)(F)F)cn2)cc1)C(F)(F)F [compound 182]
[1]; 10 ppm test suspension
  Test B disease control rating: 0%
[2]; 10 ppm test suspension
  Test A disease control rating: 0%

## CCO/C(=C\Oc1ccc(CN2C(=O)c3ccccc3C2=O)cc1)C(F)(F)F [compound 184]
[1]; 10 ppm test suspension
  Test B disease control rating: 0%
[2]; 10 ppm test suspension
  Test A disease control rating: 0%

## CCOC(=O)c1cnn(Cc2ccc(OCC3(C(F)(F)F)OC(=O)C(C)O3)cc2)c1 (stereo not shown) [compound 187]
[1]; 10 ppm test suspension
  Test B disease control rating: 74%
[2]; 10 ppm test suspension
  Test A disease control rating: 93%

## C=CCOC(=O)c1cnn(Cc2ccc(OCC3(C(F)(F)F)OCCO3)cc2)c1 [compound 188]
[1]; 10 ppm test suspension
  Test B disease control rating: 0%
[2]; 10 ppm test suspension
  Test A disease control rating: 100%

## COC(=O)c1ccc(OCC2(C(F)(F)F)OCCO2)cc1 [compound 189]
[1]; 10 ppm test suspension
  Test B disease control rating: 0%
[2]; 10 ppm test suspension
  Test A disease control rating: 0%

## FC(F)(F)C1(COc2ccc(-c3ccccc3)cc2)OCCO1 [compound 190]
[1]; 10 ppm test suspension
  Test B disease control rating: 0%
[2]; 10 ppm test suspension
  Test A disease control rating: 0%

## FC(F)(F)C1(COc2ccc(Oc3ccccc3)cc2)OCCO1 [compound 191]
[1]; 10 ppm test suspension
  Test B disease control rating: 0%
[2]; 10 ppm test suspension
  Test A disease control rating: 0%

## FC(F)(F)C1(COc2ccc(Cc3ccccc3)cc2)OCCO1 [compound 192]
[1]; 10 ppm test suspension
  Test B disease control rating: 0%
[2]; 10 ppm test suspension
  Test A disease control rating: 0%

## CCO/C(=C\Oc1ccc(COC(N)=O)cc1)C(F)(F)F [compound 193]
[1]; 10 ppm test suspension
  Test B disease control rating: 86%
[2]; 10 ppm test suspension
  Test A disease control rating: 0%

## CCO/C(=C\Oc1ccc(CO)cc1)C(F)(F)F [compound 195]
[1]; 10 ppm test suspension
  Test B disease control rating: 0%
[2]; 10 ppm test suspension
  Test A disease control rating: 0%

## CCNC(=O)OCc1ccc(O/C=C(\OCC)C(F)(F)F)cc1 [compound 196]
[1]; 10 ppm test suspension
  Test B disease control rating: 74%
[2]; 10 ppm test suspension
  Test A disease control rating: 0%

## O=C(NCC(F)(F)F)c1cnn(Cc2ccc(OCC3(C(F)(F)F)OCCO3)cc2)c1 [compound 197]
[1]; 10 ppm test suspension
  Test B disease control rating: 0%
[2]; 10 ppm test suspension
  Test A disease control rating: 0%

## CN(C)C(=O)c1cnn(Cc2ccc(OCC3(C(F)(F)F)OCCO3)cc2)c1 [compound 198]
[1]; 10 ppm test suspension
  Test B disease control rating: 0%
[2]; 10 ppm test suspension
  Test A disease control rating: 0%

## O=C(OCc1ccccn1)c1cnn(Cc2ccc(OCC3(C(F)(F)F)OCCO3)cc2)c1 [compound 199]
[1]; 10 ppm test suspension
  Test B disease control rating: 0%
[2]; 10 ppm test suspension
  Test A disease control rating: 100%

## O=C(OCc1cccnc1)c1cnn(Cc2ccc(OCC3(C(F)(F)F)OCCO3)cc2)c1 [compound 200]
[1]; 10 ppm test suspension
  Test B disease control rating: 0%
[2]; 10 ppm test suspension
  Test A disease control rating: 100%

## O=C(OCc1ccncc1)c1cnn(Cc2ccc(OCC3(C(F)(F)F)OCCO3)cc2)c1 [compound 201]
[1]; 10 ppm test suspension
  Test B disease control rating: 0%
[2]; 10 ppm test suspension
  Test A disease control rating: 100%

## O=C(OCC(=O)C1CCCCC1)c1cnn(Cc2ccc(OCC3(C(F)(F)F)OCCO3)cc2)c1 [compound 202]
[1]; 10 ppm test suspension
  Test B disease control rating: 0%
[2]; 10 ppm test suspension
  Test A disease control rating: 100%

## COC(=O)COC(=O)c1cnn(Cc2ccc(OCC3(C(F)(F)F)OCCO3)cc2)c1 [compound 203]
[1]; 10 ppm test suspension
  Test B disease control rating: 0%
[2]; 10 ppm test suspension
  Test A disease control rating: 50%

## O=C(OCC1OCCO1)c1cnn(Cc2ccc(OCC3(C(F)(F)F)OCCO3)cc2)c1 [compound 204]
[1]; 10 ppm test suspension
  Test B disease control rating: 0%
[2]; 10 ppm test suspension
  Test A disease control rating: 100%

## CCO/C(=C\Oc1ccc(Cn2cc(C#N)cn2)cc1)C(F)(F)F [compound 205]
[1]; 10 ppm test suspension
  Test B disease control rating: 0%
[2]; 10 ppm test suspension
  Test A disease control rating: 0%

## O=S(=O)(NCc1ccc(OCC2(C(F)(F)F)OCCO2)cc1)C(F)(F)F [compound 207]
[1]; 10 ppm test suspension
  Test B disease control rating: 0%
[2]; 10 ppm test suspension
  Test A disease control rating: 0%

## N#Cc1cnn(Cc2ccc(OCC3(C(F)(F)F)OCCO3)cc2)c1 [compound 209]
[1]; 10 ppm test suspension
  Test B disease control rating: 0%
[2]; 10 ppm test suspension
  Test A disease control rating: 89%

## CCO/C(=C\Oc1ccc(CNC(=O)C(C)C)cc1)C(F)(F)F [compound 210]
[1]; 10 ppm test suspension
  Test B disease control rating: 0%
[2]; 10 ppm test suspension
  Test A disease control rating: 0%

## O=C(CC(F)(F)F)NCc1ccc(OCC2(C(F)(F)F)OCCO2)cc1 [compound 212]
[1]; 10 ppm test suspension
  Test B disease control rating: 0%
[2]; 10 ppm test suspension
  Test A disease control rating: 44%

## COC(C)C(=O)NCc1ccc(OCC2(C(F)(F)F)OCCO2)cc1 (stereo not shown) [compound 214]
[1]; 10 ppm test suspension
  Test B disease control rating: 0%
[2]; 10 ppm test suspension
  Test A disease control rating: 0%
